Laboratory results: US4211693A, “Peptides with para-substituted phenylalanine” (The Salk Institute for Biological Studies, priority 1978, dated 1980)
Like-named read-outs stand apart in the source and are kept apart here. Where a SMILES comes first, the peptide text is derived from it. Bridges are numbered along the chain shown (N, C = ends). [ ]: non-standard residue; d: D form. Phe(4-Cl) = N[C@@H](Cc1ccc(Cl)cc1)C(=O)O

Key:
[1] = test system: secretion of growth hormone
Method: GH determinations were performed on tissue culture media utilizing the following reagents: NIAMDD rat GH standard (GH-RP-1), NIAMDD monkey anti-rat GH (GH-Serum-3), and highly purified rat GH for iodination.

secretion of glucagon = format: in vivo, Male Sprague-Dawley-CD rats
Method: (§1) In vivo Bioassay: Male Sprague-Dawley-CD rats weighing 180-200 g housed in temperature and humidity controlled quarters with 14 h light and 10 h dark (light 0700-[…]) were used in all experiments. Animals were fed a standard ration and tap water ad libitum. Experiments were carried out at least 5 days after arrival of rats from the supplier between the hours 1400 and 1600. After ether anesthesia, peptides or saline were administered in a volume of 0.2 ml via the external jugular vein. Animals remained anesthetized until the time of blood collection from the portal vein. Blood collection was performed at various times after administration of the peptide or saline. The blood samples were placed into chilled tubes containing 10 mg EDTA and 50 μl of 2 M Benzamidine per ml of blood.
(§2) All experiments were carried on in a randomized block design. Following analysis of variance difference between treatmments were determined by the multiple range tests of Dunnett and Duncan. Potency values were calculated from four or six point bioassays.

secretion of insulin = format: in vivo, Male Sprague-Dawley-CD rats
Method: as §1, §2

[2] = somatostatin = 100, peptide via external jugular vein, blood from portal vein, four or six point bioassays

| Compound | Relative potency to inhibit the secretion of GH (growth hormone) [1] | Relative potency to inhibit the secretion of GLUCAGON (secretion of glucagon; rat, in vivo) | Relative potency to inhibit the secretion of INSULIN (secretion of insulin; rat, in vivo) | Relative potency to inhibit the secretion of GH (growth hormone) ([1]; somatostatin = 100, GH in tissue culture media, four or six point bioassays) | Relative potency to inhibit the secretion of GLUCAGON (secretion of glucagon; [2]) | Relative potency to inhibit the secretion of INSULIN (secretion of insulin; [2]) |
| --- | --- | --- | --- | --- | --- | --- |
| C[C@H](N)C(=O)NCC(=O)N[C@H]1CSSC[C@@H](C(=O)O)NC(=O)[C@H](CO)NC(=O)[C@H]([C@@H](C)O)NC(=O)[C@H](Cc2ccc(Cl)cc2)NC(=O)[C@H]([C@@H](C)O)NC(=O)[C@H](CCCCN)NC(=O)[C@H](Cc2c[nH]c3ccccc23)NC(=O)[C@H](Cc2ccc(Cl)cc2)NC(=O)[C@H](Cc2ccc(Cl)cc2)NC(=O)[C@H](CC(N)=O)NC(=O)[C@H](CCCCN)NC1=O [[P Cl Phe^6,7,11]--SS] | 78 | 900 | 800 | – | – | – |
| C[C@H](N)C(=O)NCC(=O)N[C@H]1CSSC[C@@H](C(=O)O)NC(=O)[C@H](CO)NC(=O)[C@H]([C@@H](C)O)NC(=O)[C@H](Cc2ccc(I)cc2)NC(=O)[C@H]([C@@H](C)O)NC(=O)[C@H](CCCCN)NC(=O)[C@@H](Cc2c[nH]c3ccccc23)NC(=O)[C@H](Cc2ccccc2)NC(=O)[C@H](Cc2ccccc2)NC(=O)[C@H](CC(N)=O)NC(=O)[C@H](CCCCN)NC1=O [[P I Phe^11]--D-Trp^8 --SS] | – | 800 | 33 | – | – | – |
| C[C@H](N)C(=O)NCC(=O)N[C@H]1CSSC[C@@H](C(=O)O)NC(=O)[C@H](CO)NC(=O)[C@H]([C@@H](C)O)NC(=O)[C@H](Cc2ccccc2)NC(=O)[C@H]([C@@H](C)O)NC(=O)[C@H](CCCCN)NC(=O)[C@@H](Cc2c[nH]c3ccccc23)NC(=O)[C@H](Cc2ccc(I)cc2)NC(=O)[C@H](Cc2ccccc2)NC(=O)[C@H](CC(N)=O)NC(=O)[C@H](CCCCN)NC1=O [[P I Phe^7]--D-Trp^8 --SS] | – | 100 | 100 | – | – | – |
| C[C@H](N)C(=O)NCC(=O)N[C@H]1CSSC[C@@H](C(=O)O)NC(=O)[C@H](CO)NC(=O)[C@H]([C@@H](C)O)NC(=O)[C@H](Cc2ccc(I)cc2)NC(=O)[C@H]([C@@H](C)O)NC(=O)[C@H](CCCCN)NC(=O)[C@H](Cc2c[nH]c3ccccc23)NC(=O)[C@H](Cc2ccccc2)NC(=O)[C@H](Cc2ccccc2)NC(=O)[C@H](CC(N)=O)NC(=O)[C@H](CCCCN)NC1=O [[P I Phe^11]--SS] | 100 | 900 | 950 | – | – | – |
| C[C@H](N)C(=O)NCC(=O)N[C@H]1CSSC[C@@H](C(=O)O)NC(=O)[C@H](CO)NC(=O)[C@H]([C@@H](C)O)NC(=O)[C@H](Cc2ccccc2)NC(=O)[C@H]([C@@H](C)O)NC(=O)[C@H](CCCCN)NC(=O)[C@H](Cc2c[nH]c3ccccc23)NC(=O)[C@H](Cc2ccccc2)NC(=O)[C@H](Cc2ccc(Cl)cc2)NC(=O)[C@H](CC(N)=O)NC(=O)[C@H](CCCCN)NC1=O [[P Cl Phe^6]--SS] | – | 100 | 100 | – | – | – |
| C[C@H](N)C(=O)NCC(=O)N[C@H]1CSSC[C@@H](C(=O)O)NC(=O)[C@@H](CO)NC(=O)[C@H]([C@@H](C)O)NC(=O)[C@H](Cc2ccc(Cl)cc2)NC(=O)[C@H]([C@@H](C)O)NC(=O)[C@H](CCCCN)NC(=O)[C@@H](Cc2c[nH]c3ccccc23)NC(=O)[C@H](Cc2ccc(Cl)cc2)NC(=O)[C@H](Cc2ccc(Cl)cc2)NC(=O)[C@H](CCCCN)NC1=O [Des--Asn^5 --[P Cl Phe^6,7,11]--D-Trp^8 --D--Ser^13 --SS] (H-AGCK[Phe(4-Cl)][Phe(4-Cl)][dW]KT[Phe(4-Cl)]T[dS]C-OH; disulfide 3-13) | – | > 1 | 127 | – | – | – |
| C[C@H](N)C(=O)NCC(=O)N[C@H]1CSSC[C@@H](C(=O)O)NC(=O)[C@H](CO)NC(=O)[C@H]([C@@H](C)O)NC(=O)[C@H](Cc2ccccc2)NC(=O)[C@H]([C@@H](C)O)NC(=O)[C@H](CCCCN)NC(=O)[C@@H](Cc2c[nH]c3ccccc23)NC(=O)[C@H](Cc2ccccc2)NC(=O)[C@H](Cc2ccc(I)cc2)NC(=O)[C@H](CC(N)=O)NC(=O)[C@H](CCCCN)NC1=O [[P I Phe^6]--D-Trp^8 --SS] | – | 100 | 100 | – | – | – |
| C[C@@H](O)[C@@H]1NC(=O)[C@H](CCCCN)NC(=O)[C@@H](Cc2c[nH]c3ccccc23)NC(=O)[C@H](Cc2ccccc2)NC(=O)[C@H](Cc2ccc(Cl)cc2)NC(=O)[C@@H](N)CSSC[C@@H](C(=O)O)NC(=O)[C@H](Cc2ccc(Cl)cc2)NC1=O [Des--AA^1,2,4,5,12,13 --[P Cl Phe^6,11]--D-Trp^8 --SS] (H-C[Phe(4-Cl)]F[dW]KT[Phe(4-Cl)]C-OH; disulfide 1-8) | – | > 1 | 27 | – | – | – |
| C[C@H](N)C(=O)NCC(=O)N[C@H]1CSSC[C@@H](C(=O)O)NC(=O)[C@H](CO)NC(=O)[C@H]([C@@H](C)O)NC(=O)[C@H](Cc2ccccc2)NC(=O)[C@H]([C@@H](C)O)NC(=O)[C@H](CCCCN)NC(=O)[C@H](Cc2c[nH]c3ccccc23)NC(=O)[C@H](Cc2ccccc2)NC(=O)[C@H](Cc2ccccc2)NC(=O)[C@H](CC(N)=O)NC(=O)[C@H](CCCCN)NC1=O [Somatostatin (SS), Somatostatin, reference compound] | – | – | – | 100 | 100 | 100 |
